Results as given in patent publication US20020035061A1, “COMPOSITIONS AND METHODS FOR TREATING INFECTIONS USING CATIONIC PEPTIDES ALONE OR IN COMBINATION WITH ANTIBIOTICS” (priority 1996, published 2002).

Experiments:
Test in all cases: microbe, parasite or virus in culture
Type in all cases: cell-based
[1] = system: vancomycin / teicoplanin resistant enterococci; conditions: for Peptide MIC Alone: Amikacin section; for FIC: peptide + Amikacin
[2] = system: microorganisms with acquired resistance; conditions: for Peptide MIC: in µg/mL
[3] = system: inherently resistant microorganisms; conditions: S. aureus MRSA

## KKWWRRALQGLKTAGPAIQSVLNK [MBI 21A2]
[1]; E. faecalis EFS008
  Amikacin MIC + Peptide: 8 µg/mL
  Peptide MIC + Amikacin: 16 µg/mL
  Peptide MIC Alone: >128 µg/mL
  FIC: 0.19
[1]; E. faecium EFM020
  Amikacin MIC + Peptide: 2 µg/mL
  Peptide MIC + Amikacin: 64 µg/mL
  Peptide MIC Alone: 128 µg/mL
  FIC: 0.56
[2]; A. calcoaceticus AC001
  Gentamicin MIC + Peptide: 4 µg/mL
  Peptide MIC + Gentamicin: 8 µg/mL
[2]; A. calcoaceticus AC001, Gentamicin section
  Peptide MIC Alone: 16 µg/mL
[2]; E. coli 1
  Peptide MIC + Piperacillin: 2 µg/mL
  Piperacillin MIC + Peptide: 8 µg/mL
[2]; E. coli 1, Piperacillin section
  Peptide MIC Alone: 4 µg/mL
[2]; H. influenzae 1
  Peptide MIC + Piperacillin: 64 µg/mL
  Piperacillin MIC + Peptide: 4 µg/mL
[2]; H. influenzae 1, Piperacillin section
  Peptide MIC Alone: >128 µg/mL
[2]; H. influenzae 2
  Peptide MIC + Piperacillin: 64 µg/mL
  Piperacillin MIC + Peptide: 4 µg/mL
[2]; H. influenzae 2, Piperacillin section
  Peptide MIC Alone: >128 µg/mL
[2]; P. aeruginosa PA022
  Amikacin MIC + Peptide: 16 µg/mL
  Gentamicin MIC + Peptide: 2 µg/mL
  Peptide MIC + Amikacin: 2 µg/mL
  Peptide MIC + Gentamicin: 4 µg/mL
[2]; P. aeruginosa PA022, Amikacin section
  Peptide MIC Alone: 8 µg/mL
[2]; P. aeruginosa PA022, Gentamicin section
  Peptide MIC Alone: 8 µg/mL
[2]; P. aeruginosa PA41
  Ciprofloxacin MIC + Peptide: 1 µg/mL
  Peptide MIC + Ciprofloxacin: 16 µg/mL
[2]; P. aeruginosa PA41, Ciprofloxacin section
  Peptide MIC Alone: 64 µg/mL
[2]; P. aeruginosa PA77
  Ciprofloxacin MIC + Peptide: 0.25 µg/mL
  Peptide MIC + Ciprofloxacin: 32 µg/mL
[2]; P. aeruginosa PA77, Ciprofloxacin section
  Peptide MIC Alone: 64 µg/mL
[2]; P. aeruginosa, combination with Ciprofloxacin
  Peptide MIC: 16
[2]; S. aureus, combination with Ciprofloxacin
  Peptide MIC: 4
[2]; S. aureus, combination with Mupirocin
  Peptide MIC: 32
[2]; S. maltophilia 3
  Peptide MIC + Piperacillin: 16 µg/mL
  Piperacillin MIC + Peptide: 16 µg/mL
[2]; S. maltophilia 3, Piperacillin section
  Peptide MIC Alone: 32 µg/mL
[2]; S. maltophilia 11
  Peptide MIC + Piperacillin: 64 µg/mL
  Piperacillin MIC + Peptide: 8 µg/mL
[2]; S. maltophilia 11, Piperacillin section
  Peptide MIC Alone: 128 µg/mL
[2]; S. maltophilia SMA020
  Gentamicin MIC + Peptide: 0.125 µg/mL
  Peptide MIC + Gentamicin: 8 µg/mL
[2]; S. maltophilia SMA020, Gentamicin section
  Peptide MIC Alone: 16 µg/mL
[2]; S. maltophilia SMA021
  Gentamicin MIC + Peptide: 0.125 µg/mL
  Peptide MIC + Gentamicin: 8 µg/mL
[2]; S. maltophilia SMA021, Gentamicin section
  Peptide MIC Alone: 16 µg/mL
[2]; S. marcescens 1
  Peptide MIC + Piperacillin: 4 µg/mL
  Piperacillin MIC + Peptide: 16 µg/mL
[2]; S. marcescens 1, Piperacillin section
  Peptide MIC Alone: >128 µg/mL
[2]; peptide + Amikacin, P. aeruginosa PA022
  FIC: 0.50
[2]; peptide + Ciprofloxacin, P. aeruginosa PA41
  FIC: 0.50
[2]; peptide + Ciprofloxacin, P. aeruginosa PA77
  FIC: 0.63
[2]; peptide + Gentamicin, A. calcoaceticus AC001
  FIC: 1.00
[2]; peptide + Gentamicin, P. aeruginosa PA022
  FIC: 0.56
[2]; peptide + Gentamicin, S. maltophilia SMA020
  FIC: 0.50
[2]; peptide + Gentamicin, S. maltophilia SMA021
  FIC: 0.50
[2]; peptide + Piperacillin, E. coli 1
  FIC: 0.53
[2]; peptide + Piperacillin, H. influenzae 1
  FIC: 0.31
[2]; peptide + Piperacillin, H. influenzae 2
  FIC: 0.28
[2]; peptide + Piperacillin, S. maltophilia 3
  FIC: 0.75
[2]; peptide + Piperacillin, S. maltophilia 11
  FIC: 0.75
[2]; peptide + Piperacillin, S. marcescens 1
  FIC: 0.27
[3]
  Peptide MIC + Amikacin: 1 µg/mL
  Peptide MIC + Piperacillin: 64 µg/mL
[3]; Amikacin section
  Peptide MIC Alone: 2 µg/mL
[3]; Piperacillin section
  Peptide MIC Alone: >128 µg/mL
[3]; peptide + Amikacin
  FIC: 0.56
[3]; peptide + Piperacillin
  FIC: 0.25
